Literature values, collected in patent EP3111929B1, “ORAL DISINTEGRATING FILM FORMULATION CONTAINING TADALAFIL AND PREPARATION METHOD THEREFOR” (Wooshin Labottach Co., Ltd., priority 2014, dated 2015).

Key:
[1] = water; background statement
PDE5/PDE6 = details: compared with sildenafil; background statement

Structure (SMILES): CN1CC(=O)N2[C@H](c3ccc4c(c3)OCO4)c3[nH]c4ccccc4c3C[C@@H]2C1=O [tadalafil, (6R, 12aR)-6-(1,3-benzodioxol-5-yl)-2,3,6,7,12,12a-hexahydro-2-methyl-pyrazino[1',2':1,6]p yrido[3,4-b]indole-1,4-dion]
- solubility [1]: actually water-insoluble
- selectivity of PDE5/PDE6 (PDE5/PDE6): better than sildenafil
